Results on 2 compounds are retold here after PubChem BioAssay AID1259407 (Chemical Carcinogenesis Research Information System (CCRIS), 2018).

This series relates to CCRIS mutagenicity, Ames/micronucleus/aberration tests. Briefly: CCRIS mutagenicity studies.
Where [1] appears, read: Test System: AMES SALMONELLA TYPHIMURIUM, Strain/Indicator: TA100, Metabolic Activation: RAT, LIVER, S-9, AROCLOR 1254, Method: PREINCUBATION

The structures appear in SMILES notation. Active and inactive are the calls of the source. How the calls were made is not given here.

On to `CNc1ccc(N(CCO)CCO)cc1[N+](=O)[O-]`, for which the mutagenic call reads like this: (End Point: IN VITRO CHROMOSOMAL ABERRATIONS, Test System: CHO-LB CELLS, Metabolic Activation: NONE) “inactive; negative”; (End Point: IN VITRO CHROMOSOMAL ABERRATIONS, Test System: CHO-LB CELLS, Metabolic Activation: RAT, LIVER, S-9, AROCLOR 1254) “active; positive”; (Test System: AMES SALMONELLA TYPHIMURIUM, Strain/Indicator: TA97, Metabolic Activation: HAMSTER, LIVER, S-9, AROCLOR 1254 (10%), Method: PREINCUBATION) “active; positive”; (Test System: AMES SALMONELLA TYPHIMURIUM, Strain/Indicator: TA97, Metabolic Activation: HAMSTER, LIVER, S-9, AROCLOR 1254, Method: PREINCUBATION) “active; positive”; (Test System: AMES SALMONELLA TYPHIMURIUM, Strain/Indicator: TA97, Metabolic Activation: NONE, Method: PREINCUBATION) “active; positive”; (Test System: AMES SALMONELLA TYPHIMURIUM, Strain/Indicator: TA97, Metabolic Activation: RAT, LIVER, S-9, AROCLOR 1254 (10%), Method: PREINCUBATION) “active; positive”. The mutagenic call was “active; positive” (Test System: AMES SALMONELLA TYPHIMURIUM, Strain/Indicator: TA97, Metabolic Activation: RAT, LIVER, S-9, AROCLOR 1254, Method: PREINCUBATION); “active; positive” (Test System: AMES SALMONELLA TYPHIMURIUM, Strain/Indicator: TA98, Metabolic Activation: HAMSTER, LIVER, S-9, AROCLOR 1254 (10%), Method: PREINCUBATION); “active; positive” (Test System: AMES SALMONELLA TYPHIMURIUM, Strain/Indicator: TA98, Metabolic Activation: HAMSTER, LIVER, S-9, AROCLOR 1254, Method: PREINCUBATION); “active; positive” (Test System: AMES SALMONELLA TYPHIMURIUM, Strain/Indicator: TA98, Metabolic Activation: NONE, Method: PREINCUBATION); “inactive; negative” (Test System: AMES SALMONELLA TYPHIMURIUM, Strain/Indicator: TA98, Metabolic Activation: NONE, Method: STANDARD PLATE); “active; positive” (Test System: AMES SALMONELLA TYPHIMURIUM, Strain/Indicator: TA98, Metabolic Activation: RAT, LIVER, S-9, AROCLOR 1254 (10%), Method: PREINCUBATION). For the same compound, the mutagenic call was “active; positive” (Test System: AMES SALMONELLA TYPHIMURIUM, Strain/Indicator: TA98, Metabolic Activation: RAT, LIVER, S-9, AROCLOR 1254, Method: PREINCUBATION); “inactive; negative” (Test System: AMES SALMONELLA TYPHIMURIUM, Strain/Indicator: TA98, Metabolic Activation: RAT, LIVER, S-9, AROCLOR 1254, Method: STANDARD PLATE); “active; positive” (Test System: AMES SALMONELLA TYPHIMURIUM, Strain/Indicator: TA100, Metabolic Activation: HAMSTER, LIVER, S-9, AROCLOR 1254 (10%), Method: PREINCUBATION); “active; positive” (Test System: AMES SALMONELLA TYPHIMURIUM, Strain/Indicator: TA100, Metabolic Activation: HAMSTER, LIVER, S-9, AROCLOR 1254, Method: PREINCUBATION); “active; positive” (Test System: AMES SALMONELLA TYPHIMURIUM, Strain/Indicator: TA100, Metabolic Activation: NONE, Method: PREINCUBATION); “inactive; negative” (Test System: AMES SALMONELLA TYPHIMURIUM, Strain/Indicator: TA100, Metabolic Activation: NONE, Method: STANDARD PLATE). For the same compound, the mutagenic call reads like this: (Test System: AMES SALMONELLA TYPHIMURIUM, Strain/Indicator: TA100, Metabolic Activation: RAT, LIVER, S-9, AROCLOR 1254 (10%), Method: PREINCUBATION) “active; positive”; under setting [1], “active; positive”; (Test System: AMES SALMONELLA TYPHIMURIUM, Strain/Indicator: TA100, Metabolic Activation: RAT, LIVER, S-9, AROCLOR 1254, Method: STANDARD PLATE) “inactive; negative”; (Test System: AMES SALMONELLA TYPHIMURIUM, Strain/Indicator: TA1535, Metabolic Activation: HAMSTER, LIVER, S-9, AROCLOR 1254 (10%), Method: PREINCUBATION) “inactive; negative”; (Test System: AMES SALMONELLA TYPHIMURIUM, Strain/Indicator: TA1535, Metabolic Activation: HAMSTER, LIVER, S-9, AROCLOR 1254, Method: PREINCUBATION) “inactive; negative”; (Test System: AMES SALMONELLA TYPHIMURIUM, Strain/Indicator: TA1535, Metabolic Activation: NONE, Method: PREINCUBATION) “inactive; negative”. For the same compound, the mutagenic call was “inactive; negative” (Test System: AMES SALMONELLA TYPHIMURIUM, Strain/Indicator: TA1535, Metabolic Activation: NONE, Method: STANDARD PLATE); “inactive; negative” (Test System: AMES SALMONELLA TYPHIMURIUM, Strain/Indicator: TA1535, Metabolic Activation: RAT, LIVER, S-9, AROCLOR 1254 (10%), Method: PREINCUBATION); “inactive; negative” (Test System: AMES SALMONELLA TYPHIMURIUM, Strain/Indicator: TA1535, Metabolic Activation: RAT, LIVER, S-9, AROCLOR 1254, Method: PREINCUBATION); “inactive; negative” (Test System: AMES SALMONELLA TYPHIMURIUM, Strain/Indicator: TA1535, Metabolic Activation: RAT, LIVER, S-9, AROCLOR 1254, Method: STANDARD PLATE); “inactive; negative” (Test System: AMES SALMONELLA TYPHIMURIUM, Strain/Indicator: TA1537, Metabolic Activation: NONE, Method: STANDARD PLATE); “inactive; negative” (Test System: AMES SALMONELLA TYPHIMURIUM, Strain/Indicator: TA1537, Metabolic Activation: RAT, LIVER, S-9, AROCLOR 1254, Method: STANDARD PLATE). The mutagenic call by setting is: (Test System: E. COLI, Strain/Indicator: WP2 UVRA, Metabolic Activation: NONE, Method: STANDARD PLATE) “inactive; negative”; (Test System: E. COLI, Strain/Indicator: WP2 UVRA, Metabolic Activation: RAT, LIVER, S-9, AROCLOR 1254, Method: STANDARD PLATE) “inactive; negative”; (Test System: MOUSE LYMPHOMA, Strain/Indicator: L5178Y (TK+/TK-), Metabolic Activation: RAT, LIVER, S-9, AROCLOR 1254, Method: SUSPENSION/PLATE) “inactive; negative”; (Test System: UDS MONKEY PRIMARY HEPATOCYTES, Strain/Indicator: THY INCORP (NON-S-PHASE), Metabolic Activation: NONE, Method: AUTORADIOGRAPHY) “active; positive”; (Test System: UDS RODENT PRIMARY HEPATOCYTES, Strain/Indicator: THY INCORP (NON-S-PHASE), Metabolic Activation: NONE, Method: AUTORADIOGRAPHY) “active; positive”.

As for `Oc1cccc2cc3c4ccccc4c4ccccc4c3cc12`, the mutagenic call under setting [1] was “active; positive”.
